Results published in patent US20150250176A1, “METHOD FOR ENHANCING TOLERANCE TO ABIOTIC STRESS IN PLANTS USING CARBOXAMIDE OR THIOCARBOXAMIDE DERIVATIVES” (BAYER CROPSCIENCE AG, priority 2012, published 2015).

Experiments:
[1] = test system: TRZAS (Triticum aestivum); assay: Drought stress test on crop plants, spray application, TRZAS; type: in vivo; conditions: for percent reduction in drought damage at 25 g/ha / pest or weed control at 25 g/ha / percent reduction in drought damage at 250 g/ha / pest or weed control at 250 g/ha: read-out: EF (TRZAS), efficacy = percentage reduction in the intensity of damage; for pest or weed control at 25 g/ha: dosage 25 g/ha
Procedure: (§1) Seeds of monocotyledonous and dicotyledonous crop plants were placed in sandy loam in wood-fiber pots, covered with soil and cultivated in a greenhouse under good growth conditions. The test plants were treated at the early leaf stage (BBCH10-BBCH13). To ensure uniform water supply before commencement of stress, the potted plants were supplied with the maximum amount of water immediately beforehand by dam irrigation.
(§2) The inventive compounds, formulated in the form of wettable powders (WP) were sprayed onto the green parts of the plants as an aqueous suspension at an equivalent water application rate of 600 l/ha with addition of 0.2% wetting agent (agrotin). Substance application was followed immediately by stress treatment of the plants, for which the pots were transferred in plastic inserts in order to prevent subsequent, excessively rapid drying.
(§3) Drought stress was induced by gradual drying out under the following conditions: • “day”: 14 hours with illumination at ˜26° C. • “night”: 10 hours without illumination at ˜18° C.
(§4) The duration of the respective stress phases was guided mainly by the state of the untreated, stressed control plants and thus varies from crop to crop. It was ended (by re-irrigating or transfer to a greenhouse with good growth conditions) as soon as irreversible damage is observed on the untreated, stressed control plants. In the case of dicotyledonous crops, for example oilseed rape and soya, the duration of the drought stress phase was between 3 and 6 days, in the case of monocotyledonous crops, for example wheat, barley or corn, between 6 and 11 days.
(§5) The end of the stress phase was followed by an approx. 5-7-day recovery phase, during which the plants were once again kept under good growth conditions in a greenhouse. In order to rule out any influence of the effects observed by any fungicidal action of the test compounds, it was additionally ensured that the tests proceed without fungal infection and without infection pressure.
(§6) After the recovery phase had ended, the intensities of damage were rated visually compared to untreated, unstressed controls of the same age (in the case of drought stress) or the same growth stage (in the case of cold stress). The intensity of damage was first assessed as a percentage (100% =plants have died, 0% =like control plants). These values were then used to calculate the efficacy of the test compounds (=percentage reduction in the intensity of damage as a result of substance application) by the following formula:
(§7) [formula] • EF: efficacy (%) • DVus: damage value of the untreated, stressed control • […] with test compound
(§8) The tables below list mean values in each case from 2 or more independent experiments.
(§9) Tables A.1 to A.3 show, by way of example, the efficacies of compound of formula (I) as herein defined under drought stress and in conjunction with application to different crop plants, i.e. in table A.1 on application to BRSNS (Brassica napus), in table A.2 on application to TRZAS (Triticum aestivum) and in table A.3 on application to ZEAMX (Zea mays): […]

[2] = logP determination by HPLC on a reversed-phase column (EEC Directive 79/831 Annex V.A8); conditions: reversed-phase C18 HPLC column
Procedure: Temperature: 40° C.; Mobile phases: 0.1% aqueous formic acid and acetonitrile; linear gradient from 10% acetonitrile to 90% acetonitrile.
Calibration was carried out using unbranched alkan-2-ones (comprising 3 to 16 carbon atoms) with known logP values (determination of the logP values by the retention times using linear interpolation between two successive alkanones). lambda-max-values were determined using UV-spectra from 200 nm to 400 nm and the peak values of the chromatographic signals.

BRSNS (Brassica napus) = assay: Drought stress test on crop plants, spray application, BRSNS; type: in vivo; conditions: mean of 2 or more experiments
Procedure: as §1, §2, §3, §4, §5, §6, §7, §8, §9

ZEAMX (Zea mays) = assay: Drought stress test on crop plants, spray application, ZEAMX; type: in vivo; conditions: dosage 250 g/ha, mean of 2 or more experiments
Procedure: as §1, §2
Drought stress was induced by gradual drying out under the following conditions: • “day”: 14 hours with illumination at ˜26° C. • “night”: 10 hours without illumination at ˜18° C. […]
After the recovery phase had ended, the intensities of damage were rated visually compared to untreated, unstressed controls of the same age (in the case of drought stress) or the same growth stage (in the case of cold stress). The intensity of damage was first assessed as a percentage (100% =plants have died, 0% =like control plants). […]

[3] = drought stress, spray, mean of 2 or more experiments
[4] = drought stress, dosage 250 g/ha, spray, mean of 2 or more experiments

`CCc1ccc(Cl)cc1CN(C(=O)c1c(C(F)F)nn(C)c1F)C1CC1` [Compound A4, N-(5-chloro-2-ethylbenzyl)-N-cyclopropyl-3-(difluoromethyl)-5-fluoro-1-methyl-1H-pyrazole-4-carboxamide] gave a percent reduction in drought damage at 25 g/ha [1] of over 5% and a chromatographic logP [2] of 3.76.
In the case of `CC(C)c1cccc(F)c1CN(C(=O)c1c(C(F)F)nn(C)c1F)C1CC1` [Compound A10, N-cyclopropyl-3-(difluoromethyl)-5-fluoro-N-(2-fluoro-6-isopropylbenzyl)-1-methyl-1H-pyrazole-4-carboxamide], the chromatographic logP [2] is reported as 3.65.
In the case of `Cc1ccc(C(C)C)c(CN(C(=O)c2c(C(F)F)nn(C)c2F)C2CC2)c1` [Compound A12, N-cyclopropyl-3-(difluoromethyl)-5-fluoro-N-(2-isopropyl-5-methylbenzyl)-1-methyl-1H-pyrazole-4-carboxamide], the “EF (BRSNS), efficacy = percentage reduction in the intensity of damage” value (BRSNS (Brassica napus); dosage 2.5 g/ha) is reported as over 5%, the “EF (BRSNS), efficacy = percentage reduction in the intensity of damage” value (BRSNS (Brassica napus); dosage 25 g/ha) is reported as over 5% and the “EF (BRSNS), efficacy = percentage reduction in the intensity of damage” value (BRSNS (Brassica napus); dosage 250 g/ha) is reported as over 5%. It also gave a chromatographic logP [2] of 3.99.
Work on `Cc1ccc(C2CC2)c(CN(C(=O)c2c(C(F)F)nn(C)c2F)C2CC2)c1` [Compound A13, N-cyclopropyl-N-(2-cyclopropyl-5-methylbenzyl)-3-(difluoromethyl)-5-fluoro-1-methyl-1H-pyrazole-4-carboxamide] yielded a chromatographic logP [2] of 3.76.
`Cn1nc(C(F)F)c(C(=O)N(Cc2c(Cl)cccc2C(F)(F)F)C2CC2)c1F` [Compound A17, N-[2-chloro-6-(trifluoromethyl)benzyl]-N-cyclopropyl-3-(difluoromethyl)-5-fluoro-1-methyl-1H-pyrazole-4-carboxamide] showed a chromatographic logP [2] of 3.46.
With `CCc1cc(C)c(C)cc1CN(C(=O)c1c(C(F)F)nn(C)c1F)C1CC1` [Compound A19, N-cyclopropyl-3-(difluoromethyl)-N-(2-ethyl-4,5-dimethylbenzyl)-5-fluoro-1-methyl-1H-pyrazole-4-carboxamide] the “EF (BRSNS), efficacy = percentage reduction in the intensity of damage” value (BRSNS (Brassica napus); dosage 25 g/ha) was over 5%, the pest or weed control at 25 g/ha [1, 3] was over 5% and the chromatographic logP [2] was 4.04.
With `Cn1nc(C(F)F)c(C(=O)N(Cc2ccccc2C2CC2)C2CC2)c1F` [Compound A2, N-cyclopropyl-N-(2-cyclopropylbenzyl)-3-(difluoromethyl)-5-fluoro-1-methyl-1H-pyrazole-4-carboxamide] the “EF (BRSNS), efficacy = percentage reduction in the intensity of damage” value (BRSNS (Brassica napus); dosage 2.5 g/ha) was over 5%, the “EF (BRSNS), efficacy = percentage reduction in the intensity of damage” value (BRSNS (Brassica napus); dosage 25 g/ha) was over 5% and the “EF (BRSNS), efficacy = percentage reduction in the intensity of damage” value (BRSNS (Brassica napus); dosage 250 g/ha) was over 5%. The chromatographic logP [2] was 3.44.
Work on `Cn1nc(C(F)F)c(C(=O)N(Cc2cc(F)ccc2C2CCCC2)C2CC2)c1F` [Compound A9, N-(2-cyclopentyl-5-fluorobenzyl)-N-cyclopropyl-3-(difluoromethyl)-5-fluoro-1-methyl-1H-pyrazole-4-carboxamide] yielded a chromatographic logP [2] of 4.21.
In the case of `Cc1ccc(C(C)(C)C)c(CN(C(=O)c2c(C(F)F)nn(C)c2F)C2CC2)c1` [Compound A14, N-(2-tert-butyl-5-methylbenzyl)-N-cyclopropyl-3-(difluoromethyl)-5-fluoro-1-methyl-1H-pyrazole-4-carboxamide], the percent reduction in drought damage at 250 g/ha [1] is reported as over 5% and the chromatographic logP [2] is reported as 4.36.
In the case of `Cn1nc(C(F)F)c(C(=O)N(Cc2cc(F)ccc2C2CC2)C2CC2)c1F` [Compound A8, N-cyclopropyl-N-(2-cyclopropyl-5-fluorobenzyl)-3-(difluoromethyl)-5-fluoro-1-methyl-1H-pyrazole-4-carboxamide], the “EF (BRSNS), efficacy = percentage reduction in the intensity of damage” value (BRSNS (Brassica napus); dosage 2.5 g/ha) is reported as over 5%, the chromatographic logP [2] is reported as 3.46 and the “EF (ZEAMX), efficacy = percentage reduction in the intensity of damage” value (ZEAMX (Zea mays)) is reported as over 5%.
`CCc1ccc(C)cc1CN(C(=O)c1c(C(F)F)nn(C)c1F)C1CC1` [Compound A11, N-cyclopropyl-3-(difluoromethyl)-N-(2-ethyl-5-methylbenzyl)-5-fluoro-1-methyl-1H-pyrazole-4-carboxamide] gave a pest or weed control at 25 g/ha [1, 3] of over 5% and a chromatographic logP [2] of 3.7.
`Cn1nc(C(F)F)c(C(=O)N(Cc2c(C(F)(F)F)ccc(Cl)c2F)C2CC2)c1F` [Compound A18, N-[3-chloro-2-fluoro-6-(trifluoromethyl)benzyl]-N-cyclopropyl-3-(difluoromethyl)-5-fluoro-1-methyl-1H-pyrazole-4-carboxamide] showed a chromatographic logP [2] of 3.62.
With `Cc1ccc(C(F)(F)F)c(CN(C(=O)c2c(C(F)F)nn(C)c2F)C2CC2)c1` [Compound A16, N-cyclopropyl-3-(difluoromethyl)-5-fluoro-1-methyl-N-[5-methyl-2-(trifluoromethyl)benzyl]-1H-pyrazole-4-carboxamide] the percent reduction in drought damage at 250 g/ha [1] was over 5% and the chromatographic logP [2] was 3.78.
In the case of `CC(C)c1ccc(Cl)cc1CN(C(=O)c1c(C(F)F)nn(C)c1F)C1CC1` [Compound A5, N-(5-chloro-2-isopropylbenzyl)-N-cyclopropyl-3-(difluoromethyl)-5-fluoro-1-methyl-1H-pyrazole-4-carboxamide], the “EF (BRSNS), efficacy = percentage reduction in the intensity of damage” value (BRSNS (Brassica napus); dosage 25 g/ha) is reported as over 5%, the pest or weed control at 25 g/ha [1, 3] is reported as over 5% and the pest or weed control at 250 g/ha [1, 4] is reported as over 5%. It also gave a chromatographic logP [2] of 4.09.
In the case of “N-cyclopropyl-3-(difluoromethyl)-5-fluoro-N-(2-isopropylbenzyl)-1-methyl-1H-pyrazole-4-carbothio-amide [Compound A20]”, the “EF (TRZAS), efficacy = percentage reduction in the intensity of damage” value [1, 4] is reported as over 5%.
Work on `Cn1nc(C(F)F)c(C(=O)N(Cc2ccccc2C(C)(C)C)C2CC2)c1F` [Compound A3, N-(2-tert-butylbenzyl)-N-cyclopropyl-3-(difluoromethyl)-5-fluoro-1-methyl-1H-pyrazole-4-carboxamide] yielded a percent reduction in drought damage at 25 g/ha [1] of over 5%, a percent reduction in drought damage at 250 g/ha [1] of over 5% and a chromatographic logP [2] of 4.06.
Compound `CC(C)c1ccccc1CN(C(=O)c1c(C(F)F)nn(C)c1F)C1CC1` [Compound A1, N-cyclopropyl-3-(difluoromethyl)-5-fluoro-N-(2-isopropylbenzyl)-1-methyl-1H-pyrazole-4-carboxamide] has a chromatographic logP [2] of 3.35.
For `CC(C)c1ccc(F)cc1CN(C(=O)c1c(C(F)F)nn(C)c1F)C1CC1` [Compound A7, N-cyclopropyl-3-(difluoromethyl)-5-fluoro-N-(5-fluoro-2-isopropylbenzyl)-1-methyl-1H-pyrazole-4-carboxamide], the “EF (BRSNS), efficacy = percentage reduction in the intensity of damage” value (BRSNS (Brassica napus); dosage 250 g/ha) was over 5% and the chromatographic logP [2] was 3.7.
In the case of `Cn1nc(C(F)F)c(C(=O)N(Cc2cc(Cl)ccc2C(F)(F)F)C2CC2)c1F` [Compound A15, N-[5-chloro-2-(trifluoromethyl)benzyl]-N-cyclopropyl-3-(difluoromethyl)-5-fluoro-1-methyl-1H-pyrazole-4-carboxamide], the chromatographic logP [2] is reported as 3.8.
For `CCc1ccc(F)cc1CN(C(=O)c1c(C(F)F)nn(C)c1F)C1CC1` [Compound A6, N-cyclopropyl-3-(difluoromethyl)-N-(2-ethyl-5-fluorobenzyl)-5-fluoro-1-methyl-1H-pyrazole-4-carboxamide], the “EF (BRSNS), efficacy = percentage reduction in the intensity of damage” value (BRSNS (Brassica napus); dosage 25 g/ha) was over 5%, the pest or weed control at 25 g/ha [1, 3] was over 5% and the pest or weed control at 250 g/ha [1, 4] was over 5%. For the same compound, the chromatographic logP [2] was 3.41.
